Results on one compound are retold here after patent US20140336196A1, “PHOSPHORIC ACID SALTS OF SITAGLIPTIN” (Merck Sharp & Dohme Corp., priority 2011, published 2014).

The nature of the data set: Physical stability of the crystalline salt at elevated temperature and humidity. In kind it is physicochemical.

Molecules are shown by their SMILES. Counter-ions that a name gives are not always drawn.

As for `N[C@@H](CC(=O)N1CCn2c(nnc2C(F)(F)F)C1)Cc1cc(F)c(F)cc1F` [Bis-[(2R)-4-oxo-4-[3-(trifluoromethyl)-5,6-dihydro[1,2,4]triazolo[4,3-a]pyrazin-7(8H)-yl]-1-(2,4,5-trifluorophenyl)butan-2-amine]phosphoric acid trihydrate salt], for the setting “elevated temperature and humidity (general statement)”, the “stability at elevated temperature and humidity” value is “unexpectedly stable”. Besides, the physical stability entry (solid crystalline salt, 40° C. at 75% relative humidity for 2 weeks) is given as “physically stable”.
